Data from US10681909B2, “Herbicidal triazoles” (FMC Corporation, priority 2014, dated 2020).

Tests used:
soybean = assay: Test C preemergence; assay type: in vivo, Glycine max; conditions: for Soybean plant response rating (0 to 100): Preemergence, visual rating after 13 to 15 d; for Plant response rating (scale of 0 to 100 where 0 is no effect and 100 is complete control): Soybean, preemergence, 250 g ai/ha
Outline: (§1)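 Plants are treated postemergence at the 1- to 4-leaf stage (2 to 18 cm), grown in sphagnum peat/vermiculite medium; preemergence treatment is applied to seed planted in loam soil with sand. Both use test chemical in a non-phytotoxic solvent mixture with surfactant.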

buckwheat, wild = assay: Test D postemergence; assay type: in vivo, Polygonum convolvulus; conditions: scale 0 to 100
Outline: (§2)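 Both application timings used one formulation, a non-phytotoxic solvent mixture with surfactant. Preemergence pots held silt loam, and postemergence plants grew in peat moss/vermiculite medium to the 1- to 4-leaf stage. All plants were held under controlled conditions for 14 to 21 d before visual scoring relative to controls.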

wheat (winter wheat) = assay: Test C preemergence; assay type: in vivo, Triticum aestivum; conditions: for Wheat plant response rating (0 to 100): Preemergence, visual rating after 13 to 15 d; for Plant response rating (scale of 0 to 100 where 0 is no effect and 100 is complete control): Wheat, preemergence, 250 g ai/ha
Outline: as §1

field violet = assay: Test D postemergence; assay type: in vivo, Viola arvensis; conditions: scale 0 to 100
Outline: as §2

wild mustard = assay: Test D postemergence; assay type: in vivo, Sinapis arvensis; conditions: scale 0 to 100
Outline: as §2

chickweed = assay: Test D preemergence; assay type: in vivo, Stellaria media; conditions: for Plant response rating: Chickweed: scale 0 to 100
Outline: as §2

foxtail, giant = assay: Test C preemergence; assay type: in vivo, Setaria faberii; conditions: for Plant response rating (scale of 0 to 100 where 0 is no effect and 100 is complete control): Foxtail, Giant, preemergence; for Foxtail, Giant plant response rating (0 to 100): Preemergence, visual rating after 13 to 15 d
Outline: as §1

radish, wild = assay: Test D postemergence; assay type: in vivo, Raphanus raphanistrum; conditions: scale 0 to 100
Outline: as §2

field poppy = assay: Test D postemergence; assay type: in vivo, Papaver rhoeas; conditions: scale 0 to 100
Outline: as §2

chamomile = assay: Test D postemergence; assay type: in vivo, Matricaria inodora; conditions: scale 0 to 100
Outline: as §2

canarygrass = assay: Test D postemergence; assay type: in vivo, Phalaris minor; conditions: scale 0 to 100
Outline: as §2

bluegrass = assay: Test D postemergence; assay type: in vivo, Poa annua; conditions: scale 0 to 100
Outline: as §2

deadnettle = assay: Test D preemergence; assay type: in vivo, Lamium amplexicaule; conditions: for Plant response rating: Deadnettle: scale 0 to 100
Outline: as §2

oilseed rape = assay: Test D postemergence; assay type: in vivo, Brassica napus; conditions: scale 0 to 100
Outline: as §2

barnyardgrass = assay: Test C preemergence; assay type: in vivo, Echinochloa crus-galli; conditions: for Plant response rating (scale of 0 to 100 where 0 is no effect and 100 is complete control): Barnyardgrass, preemergence; for Barnyardgrass plant response rating (0 to 100): Preemergence, visual rating after 13 to 15 d
Outline: as §1

[1] = 16 g ai/ha, 0 is no effect, 100 is complete control

In the case of `FC(F)(F)COc1nc(-c2ccccc2)nn1Cc1ccnc(C(F)(F)F)c1` [Compound 24], the “Soybean plant response rating (0 to 100)” value (soybean; 31 g ai/ha) is reported as 0, the “Soybean plant response rating (0 to 100)” value (soybean; 62 g ai/ha) is reported as 5 and the “Plant response rating (scale of 0 to 100 where 0 is no effect and 100 is complete control)” value (soybean) is reported as 35. For the same molecule, the “Plant response rating: Buckwheat, Wild” value (buckwheat, wild; 16 g ai/ha) was 50, the “Plant response rating: Buckwheat, Wild” value (buckwheat, wild; 31 g ai/ha) was 55 and the “Plant response rating: Buckwheat, Wild” value (buckwheat, wild; 62 g ai/ha) was 60. For the same molecule, the “Plant response rating: Buckwheat, Wild” value (buckwheat, wild; 125 g ai/ha) was 70, the “Wheat plant response rating (0 to 100)” value (wheat (winter wheat); 31 g ai/ha) was 0 and the “Wheat plant response rating (0 to 100)” value (wheat (winter wheat); 62 g ai/ha) was 0. For the same molecule, the “Plant response rating (scale of 0 to 100 where 0 is no effect and 100 is complete control)” value (wheat (winter wheat)) was 5, the “Plant response rating: Field Violet” value (field violet; 16 g ai/ha) was 70 and the “Plant response rating: Field Violet” value (field violet; 31 g ai/ha) was 75. The “Plant response rating: Field Violet” value (field violet; 62 g ai/ha) was 80, the “Plant response rating: Field Violet” value (field violet; 125 g ai/ha) was 90 and the “Plant response rating: Mustard, Wild” value (wild mustard; 16 g ai/ha) was 65. The “Plant response rating: Mustard, Wild” value (wild mustard; 31 g ai/ha) was 70, the “Plant response rating: Mustard, Wild” value (wild mustard; 62 g ai/ha) was 100 and the “Plant response rating: Mustard, Wild” value (wild mustard; 125 g ai/ha) was 100. The “Plant response rating (0 to 100), Chickweed” value (chickweed; [1]) was 55, the “Plant response rating: Chickweed” value (chickweed; 31 g ai/ha) was 60 and the “Plant response rating: Chickweed” value (chickweed; 62 g ai/ha) was 70. For the same molecule, the “Plant response rating: Chickweed” value (chickweed; 125 g ai/ha) was 90, the “Plant response rating (scale of 0 to 100 where 0 is no effect and 100 is complete control)” value (foxtail, giant; 125 g ai/ha) was 98 and the “Plant response rating (scale of 0 to 100 where 0 is no effect and 100 is complete control)” value (foxtail, giant; 250 g ai/ha) was 100. The “Foxtail, Giant plant response rating (0 to 100)” value (from here on “Foxtail … (0 to 100)”) (foxtail, giant; 31 g ai/ha) was 80, the “Foxtail … (0 to 100)” value (foxtail, giant; 62 g ai/ha) was 95 and the “Plant response rating: Radish, Wild” value (radish, wild; 16 g ai/ha) was 70. For the same molecule, the “Plant response rating: Radish, Wild” value (radish, wild; 31 g ai/ha) was 95, the “Plant response rating: Radish, Wild” value (radish, wild; 62 g ai/ha) was 95 and the “Plant response rating: Radish, Wild” value (radish, wild; 125 g ai/ha) was 95. For the same molecule, the “Plant response rating: Field Poppy” value (field poppy; 16 g ai/ha) was 60, the “Plant response rating: Field Poppy” value (field poppy; 31 g ai/ha) was 75 and the “Plant response rating: Field Poppy” value (field poppy; 62 g ai/ha) was 80. For the same molecule, the “Plant response rating: Field Poppy” value (field poppy; 125 g ai/ha) was 100, the “Plant response rating: Chamomile” value (chamomile; 16 g ai/ha) was 30 and the “Plant response rating: Chamomile” value (chamomile; 31 g ai/ha) was 20. The “Plant response rating: Chamomile” value (chamomile; 62 g ai/ha) was 20, the “Plant response rating: Chamomile” value (chamomile; 125 g ai/ha) was 30 and the “Plant response rating: Canarygrass” value (canarygrass; 16 g ai/ha) was 45. For the same molecule, the “Plant response rating: Canarygrass” value (canarygrass; 31 g ai/ha) was 55, the “Plant response rating: Canarygrass” value (canarygrass; 62 g ai/ha) was 60 and the “Plant response rating: Canarygrass” value (canarygrass; 125 g ai/ha) was 70. For the same molecule, the “Plant response rating: Bluegrass” value (bluegrass; 16 g ai/ha) was 15, the “Plant response rating: Bluegrass” value (bluegrass; 31 g ai/ha) was 35 and the “Plant response rating: Bluegrass” value (bluegrass; 62 g ai/ha) was 60. The “Plant response rating: Bluegrass” value (bluegrass; 125 g ai/ha) was 70, the “Plant response rating (0 to 100), Deadnettle” value (deadnettle; [1]) was 30 and the “Plant response rating: Deadnettle” value (deadnettle; 31 g ai/ha) was 80. For the same molecule, the “Plant response rating: Deadnettle” value (deadnettle; 62 g ai/ha) was 85, the “Plant response rating: Deadnettle” value (deadnettle; 125 g ai/ha) was 100 and the “Plant response rating: Oilseed Rape” value (oilseed rape; 16 g ai/ha) was 65. The “Plant response rating: Oilseed Rape” value (oilseed rape; 31 g ai/ha) was 75, the “Plant response rating: Oilseed Rape” value (oilseed rape; 62 g ai/ha) was 80 and the “Plant response rating: Oilseed Rape” value (oilseed rape; 125 g ai/ha) was 85. For the same molecule, the “Plant response rating (scale of 0 to 100 where 0 is no effect and 100 is complete control)” value (barnyardgrass; 125 g ai/ha) was 80, the “Plant response rating (scale of 0 to 100 where 0 is no effect and 100 is complete control)” value (barnyardgrass; 250 g ai/ha) was 85 and the “Barnyardgrass plant response rating (0 to 100)” value (barnyardgrass; 31 g ai/ha) was 10. The “Barnyardgrass plant response rating (0 to 100)” value (barnyardgrass; 62 g ai/ha) was 45.
For `CCOc1nc(-c2ccc(F)cc2)nn1Cc1ccnc(C(F)(F)F)c1` [Compound 8, 4-[[5-ethoxy-3-(4-fluorophenyl)-1H-1,2,4-triazol-1-yl]methyl]-2-(trifluoromethyl)pyridine], the “Soybean plant response rating (0 to 100)” value (soybean; 31 g ai/ha) was 15, the “Soybean plant response rating (0 to 100)” value (soybean; 62 g ai/ha) was 35 and the “Plant response rating (scale of 0 to 100 where 0 is no effect and 100 is complete control)” value (soybean) was 75. For the same molecule, the “Plant response rating: Buckwheat, Wild” value (buckwheat, wild; 31 g ai/ha) was 70, the “Plant response rating: Buckwheat, Wild” value (buckwheat, wild; 62 g ai/ha) was 70 and the “Plant response rating: Buckwheat, Wild” value (buckwheat, wild; 125 g ai/ha) was 95. The “Plant response rating: Buckwheat, Wild” value (buckwheat, wild; 250 g ai/ha) was 95, the “Wheat plant response rating (0 to 100)” value (wheat (winter wheat); 31 g ai/ha) was 35 and the “Wheat plant response rating (0 to 100)” value (wheat (winter wheat); 62 g ai/ha) was 45. For the same molecule, the “Plant response rating (scale of 0 to 100 where 0 is no effect and 100 is complete control)” value (wheat (winter wheat)) was 80, the “Plant response rating: Field Violet” value (field violet; 31 g ai/ha) was 70 and the “Plant response rating: Field Violet” value (field violet; 62 g ai/ha) was 75. For the same molecule, the “Plant response rating: Field Violet” value (field violet; 125 g ai/ha) was 90, the “Plant response rating: Field Violet” value (field violet; 250 g ai/ha) was 100 and the “Plant response rating: Mustard, Wild” value (wild mustard; 31 g ai/ha) was 100. For the same molecule, the “Plant response rating: Mustard, Wild” value (wild mustard; 62 g ai/ha) was 100, the “Plant response rating: Mustard, Wild” value (wild mustard; 125 g ai/ha) was 100 and the “Plant response rating: Mustard, Wild” value (wild mustard; 250 g ai/ha) was 100. The “Plant response rating: Chickweed” value (chickweed; 31 g ai/ha) was 100, the “Plant response rating: Chickweed” value (chickweed; 62 g ai/ha) was 100 and the “Plant response rating: Chickweed” value (chickweed; 125 g ai/ha) was 100. For the same molecule, the “Plant response rating: Chickweed” value (chickweed; 250 g ai/ha) was 100, the “Plant response rating (scale of 0 to 100 where 0 is no effect and 100 is complete control)” value (foxtail, giant; 125 g ai/ha) was 100 and the “Plant response rating (scale of 0 to 100 where 0 is no effect and 100 is complete control)” value (foxtail, giant; 250 g ai/ha) was 100. The “Foxtail … (0 to 100)” value (foxtail, giant; 31 g ai/ha) was 100, the “Foxtail … (0 to 100)” value (foxtail, giant; 62 g ai/ha) was 100 and the “Plant response rating: Radish, Wild” value (radish, wild; 31 g ai/ha) was 80. The “Plant response rating: Radish, Wild” value (radish, wild; 62 g ai/ha) was 100, the “Plant response rating: Radish, Wild” value (radish, wild; 125 g ai/ha) was 100 and the “Plant response rating: Radish, Wild” value (radish, wild; 250 g ai/ha) was 100. The “Plant response rating: Field Poppy” value (field poppy; 31 g ai/ha) was 80, the “Plant response rating: Field Poppy” value (field poppy; 62 g ai/ha) was 90 and the “Plant response rating: Field Poppy” value (field poppy; 125 g ai/ha) was 95. The “Plant response rating: Field Poppy” value (field poppy; 250 g ai/ha) was 100, the “Plant response rating: Chamomile” value (chamomile; 31 g ai/ha) was 50 and the “Plant response rating: Chamomile” value (chamomile; 62 g ai/ha) was 50. The “Plant response rating: Chamomile” value (chamomile; 125 g ai/ha) was 60, the “Plant response rating: Chamomile” value (chamomile; 250 g ai/ha) was 65 and the “Plant response rating: Canarygrass” value (canarygrass; 31 g ai/ha) was 55. The “Plant response rating: Canarygrass” value (canarygrass; 62 g ai/ha) was 60, the “Plant response rating: Canarygrass” value (canarygrass; 125 g ai/ha) was 65 and the “Plant response rating: Canarygrass” value (canarygrass; 250 g ai/ha) was 75. For the same molecule, the “Plant response rating: Bluegrass” value (bluegrass; 31 g ai/ha) was 55, the “Plant response rating: Bluegrass” value (bluegrass; 62 g ai/ha) was 65 and the “Plant response rating: Bluegrass” value (bluegrass; 125 g ai/ha) was 75. The “Plant response rating: Bluegrass” value (bluegrass; 250 g ai/ha) was 75, the “Plant response rating: Deadnettle” value (deadnettle; 31 g ai/ha) was 100 and the “Plant response rating: Deadnettle” value (deadnettle; 62 g ai/ha) was 100. The “Plant response rating: Deadnettle” value (deadnettle; 125 g ai/ha) was 100, the “Plant response rating: Deadnettle” value (deadnettle; 250 g ai/ha) was 100 and the “Plant response rating: Oilseed Rape” value (oilseed rape; 31 g ai/ha) was 70. The “Plant response rating: Oilseed Rape” value (oilseed rape; 62 g ai/ha) was 75, the “Plant response rating: Oilseed Rape” value (oilseed rape; 125 g ai/ha) was 100 and the “Plant response rating: Oilseed Rape” value (oilseed rape; 250 g ai/ha) was 100. For the same molecule, the “Plant response rating (scale of 0 to 100 where 0 is no effect and 100 is complete control)” value (barnyardgrass; 125 g ai/ha) was 100, the “Plant response rating (scale of 0 to 100 where 0 is no effect and 100 is complete control)” value (barnyardgrass; 250 g ai/ha) was 100 and the “Barnyardgrass plant response rating (0 to 100)” value (barnyardgrass; 31 g ai/ha) was 98. The “Barnyardgrass plant response rating (0 to 100)” value (barnyardgrass; 62 g ai/ha) was 100.
